The text below walks through data of patent US12564639B2, “Cationic nanostructures for intra-cartilage delivery of contrast agents and diagnostic uses thereof” (Northeastern University, priority 2019, dated 2026).

Data set [1] can be described thus: Zeta potential (Zetasizer Nano-ZS90). In kind it is physicochemical. The following applies: for Zeta potential (ζ): nanopure water, 0.45 mg/mL, Mean ± SD. The text has this:
• 1. Use the procedure in Section F to conjugate 4 moles of biotin-PEG-IOX with Avidin at its biotin binding sites to synthesize mAv-IOX. • 2. Use Zetasizer Nano-ZS90 to detect the zeta potential of unmodified Avidin and mAv-IOX in DI water; the zeta potential (Q, mV) of Avidin and mAv-IOX should be around 18.3±0.5 mV and 8.69±0.7 mV, respectively. • 3. Obtain 3 mm diameter×1 mm height cylindrical cartilage discs with intact superficial zone (SZ) from femoropatellar grooves of 1-2-week-old bovine knee joints and freeze them in PBS containing protease inhibitors (PI) until further use. • 4. […] Use a freezing point osmometer to balance the osmolality of these contrast agent solutions to 400±20 mOsm/kg by adding 1 M sodium chloride solution dropwise. • 5. […] Secure cartilage explants using low X-ray-absorption foam inside a 20.5 mm CT scan tube. Ensure that the cartilage explant stays secured in the foam during CT imaging. • 7. Take one of the equilibrated cartilage explants from contrast agent solution and gently using Kimwipes to remove solution from the tissue surface. • 8. Set CT35 with an isotropic voxel resolution of 10 μm, 70 kVp tube voltage, 113 μA current, and 200 ms integration time method. The CT data will be saved as DICOM format. ImageJ software will automatically display Hounsfield Unit (HU) by importing DICOM images. • 9. Process the CT imaging data acquired from CT35 using ImageJ software: (i) Go to Image→Stacks→Images to Stack to convert CT imaging data to a cartilage stack. (ii) Go to Image→Stacks→Reslice and select ‘starting at top’ to acquire a new stack showing vertical section of cartilage from superficial zone (SZ) to deep zone (DZ). […] The GAG content (mg/mg wet weight) is calculated as: […]
PEGylation of Avidin in 1:2 and 1:4 mAv was further confirmed by using H-Class Acquity UPLC (Waters Corp, Milford, MA) equipped with an Acquity UPLC BEH200 Size Exclusion Column (200 Å, 1.7 μm column, 4.6×300 mm) with 20 mM ammonium bicarbonate buffer as the mobile phase at 0.2 mL/min. Avidin was detected at 280 nm. […]

Data set [2] can be described thus: Hydrodynamic diameter estimated from molecular weight (Stokes-Einstein equation). In kind it is physicochemical. The text has this: As such, its intra-cartilage transport diffusivities (estimated using setup in FIG. 3A) were not affected either (Table 1). The hydrodynamic diameter of Avidin and mAv was estimated from their molecular weights using the Stokes-Einstein equation. The net size of mAv was within the 10 nm limit enabling it to penetrate through the full thickness of cartilage similar to unmodified Avidin.

For data set [3], the system named is chondrocytes in cartilage explants. In words: IL-1α treated cartilage explant culture OA model: chondrocyte metabolism (alamarBlue). In kind it is cell-based. The note with it: Day 16. As for the experimental part: (§1) 3 mm diameter cartilage explants harvested from calf knee joints were equilibrated separately in serum free culture media containing 96.2% low-glucose DMEM, 1.0% HEPES, 1.0% NEAA, 1.0% PSA, 0.4% proline and 0.4% ascorbic acid for 48 h at 37° C., 5% CO2 for 2 days prior to treatment. Tissue explants for all treatment conditions were matched for depth and location to prevent any bias. To test the biological effectiveness of mAv-Dex, equilibrated cartilage explants were treated with or without IL-1α (2 ng/mL) for 16 days in combination with (i) a single dose of 100 nM free Dex, (ii) a continuous dose of 100 nM free Dex, (iii) a single dose of 10 μM free Dex (iv) a single dose of fast release mAv-Dex (10 μM Dex) or (v) a single dose of controlled release mAv-Dex (2:1:1) (10 μM Dex). To evaluate the effect of mAv carrier alone on cartilage health, a high one-time dose of 10 μM mAv, which is 10× higher than that used to deliver 10 μM Dex in condition (v) above, was also tested in the absence of IL-1α. Note that mAv here refers to 1:4 mAv configuration. […]
Chondrocyte viability was analyzed by staining cartilage explants with FDA (4.0 mg/mL) and PI (10.0 mg/mL) for live (green) and dead (red) cells, respectively. […] Cell metabolic activity was estimated by measuring fluorescence at 530 nm excitation and 590 nm emission wavelengths.

In data set [4] the test system is IL-1α treated cartilage explants. Put plainly: IL-1α treated cartilage explant culture OA model: GAG loss (DMMB assay). The note with it: 16-day culture. In kind it is cell-based, bovine. An excerpt:
Tissue explants for all treatment conditions were matched for depth and location to prevent any bias. […] Note that mAv here refers to 1:4 mAv configuration. Media was changed every 2 days and IL-1α was replenished at each medium change. […] IL-1α concentration was chosen as it represents a moderately aggressive cytokine treatment. […] After 16 days of culture, cartilage explants were weighed and digested in proteinase K. The cumulative GAGs released to the media and residual GAGs in the digested explants were measured using the DMMB assay. Nitrite content was measured using the Griess assay as an indicator of nitric oxide (NO) release from tissues. Equal volumes of Griess reagent and culture media collected every two days were mixed and incubated at room temperature for 15 min, and absorbance at 540 nm was measured using a plate reader. Sodium nitrite was used as a standard.

Data set [5] has the same test system. Put plainly: IL-1α treated cartilage explant culture OA model: nitrite release (Griess assay). In kind it is cell-based, bovine. The following applies: continuous dose 100 nM, Day 8. The method, then:
as §1, with “Dex).” for “Dex). To evaluate the effect of mAv carrier alone on cartilage health, a high one-time dose of 10 μM mAv, which is 10× higher than that used to deliver 10 μM Dex in condition (v) above, was also tested in the absence of IL-1α. Note that mAv here refers to 1:4 mAv configuration.”
After 16 days of culture, cartilage explants were weighed and digested in proteinase K. The cumulative GAGs released to the media and residual GAGs in the digested explants were measured using the DMMB assay. Nitrite content was measured using the Griess assay as an indicator of nitric oxide (NO) release from tissues. Equal volumes of Griess reagent and culture media collected every two days were mixed and incubated at room temperature for 15 min, and absorbance at 540 nm was measured using a plate reader. […]

The test system is the same in data set [6]. In words: IL-1α treated cartilage explant culture OA model: Safranin-O histology. The following applies: 16 days. In kind it is cell-based, bovine. The method, then: (§2) 3 mm diameter cartilage explants harvested from calf knee joints were equilibrated separately in serum free culture media containing 96.2% low-glucose DMEM, 1.0% HEPES, 1.0% NEAA, 1.0% PSA, 0.4% proline and 0.4% ascorbic acid for 48 h at 37° C., 5% CO2 for 2 days prior to treatment. Tissue explants for all treatment conditions were matched for depth and location to prevent any bias. To test the biological effectiveness of mAv-Dex, equilibrated cartilage explants were treated with or without IL-1α (2 ng/mL) for 16 days in combination with (i) a single dose of 100 nM free Dex, (ii) a continuous dose of 100 nM free Dex, (iii) a single dose of 10 μM free Dex (iv) a single dose of fast release mAv-Dex (10 μM Dex) or (v) a single dose of controlled release mAv-Dex (2:1:1) (10 μM Dex). To evaluate the effect of mAv carrier alone on cartilage health, a high one-time dose of 10 μM mAv, which is 10× higher than that used to deliver 10 μM Dex in condition (v) above, was also tested in the absence of IL-1α. Note that mAv here refers to 1:4 mAv configuration. Media was changed every 2 days and IL-1α was replenished at each medium change. […] IL-1α concentration was chosen as it represents a moderately aggressive cytokine treatment.
Cartilage explants were fixed in 4% formalin, embedded in 0.75% agarose for ease of handling, dehydrated in a graded series of ethanol and xylenes, and embedded in paraffin. Transverse sections (to obtain full thickness cartilage slices with superficial and deep zones) were taken at 5 μm thickness. These sections were stained with 0.5% Safranin O, 0.02% Fast Green and Weigert's iron hematoxylin for GAG detection. Adjacent sections underwent antigen retrieval using 0.1% hyaluronidase, 0.1% pronase in PBS for 30 min at 37° C., then were immunostained for type II collagen using 1 μg/mL mouse IgG1 (clone II-II6B3) or normal mouse IgG1 as isotype control. Antibody detection was performed using a VectaStain Elite ABC kit with 3,3-diaminobenzidine staining. Stained sections were imaged using a Zeiss Axioplan2 equipped with an AxioCam HRc camera.

For data set [7] the following is noted: multiple IA injections, 2.5 mg every 3 days or 0.5 mg/kg; cited from earlier work.
In data set [8] the test system is chondrocytes in cartilage explants. Put plainly: IL-1α treated cartilage explant culture OA model: chondrocyte viability (FDA/PI). In kind it is cell-based. The following applies: Day 16. As for the experimental part:
as §2
Chondrocyte viability was analyzed by staining cartilage explants with FDA (4.0 mg/mL) and PI (10.0 mg/mL) for live (green) and dead (red) cells, respectively. Slices were washed with PBS and imaged at 4× magnification (Nikon Eclipse Ts2R). The live and dead images were overlaid using ImageJ. At the end of the culture, tissue explants were incubated with media containing 1× resazurin sodium salt (alamarBlue assay) for 3 h in dark at 37° C. and 5% CO2. Cell metabolic activity was estimated by measuring fluorescence at 530 nm excitation and 590 nm emission wavelengths.

The conditions of data set [9]: IA 40 mg every 3 months for 2 years; cited from earlier work.
The conditions of data set [10]: one week following ACLT, read at 3 weeks, vs free Dex; cited from earlier work.
Data set [11] can be described thus: Intra-cartilage diffusion kinetics (non-equilibrium one-dimensional diffusion, transport chamber). The following applies: 3 μM upstream, 400-600 μm cartilage disk; Mean ± SD.
Experimental: The interior walls of the transport chamber were equilibrated in 0.5% nonfat-dried bovine milk solution in PBS for 15 min to lessen non-specific binding of solutes to inner walls of the transport chamber. Subsequently, the compartments of chamber were rinsed with DI water. 3 μM solution of labeled Avidin or mAv was added to the upstream chamber. A 6 mm diameter cartilage disk of 400-600 μm thickness was placed between the upstream and downstream compartments. Concentration of fluorescently labeled solutes in the downstream chamber was measured over time by exciting the downstream solution using a 480 nm laser line and detecting the emission. Non-equilibrium diffusion curves were thereby obtained by plotting normalized downstream concentration (CD) to upstream concentration (Cu) over time. Effective Diffusivity (DEFF), which is the diffusivity of solutes in cartilage while binding interactions exist within the tissue was estimated as follows:
[formula] where L corresponds to cartilage thickness, and τLag is the time it takes to reach a steady state flux. τLag was estimated using the time-axis intercept of the linear slope of the normalized concentration versus time.
For data set [12] the following is noted: rabbit, in vivo; cited from earlier work.
The test system of data set [13] is bovine cartilage explants. The following applies: cited from earlier work.
Data set [14] can be described thus: Equilibrium uptake in cartilage explants (uptake ratio Ru). The following applies: 50% GAG depleted cartilage (mid-stage OA).
Experimental: Cartilage explants were harvested from the femoropatellar groove of 2-3-week-old bovine knees (Research 87, Boylston, MA) with a 3 mm diameter biopsy punch. The cylindrical plugs were then sliced to obtain the superficial 1 mm layer of cartilage, and frozen until use. […] Cartilage disks were equilibrated in 300 μL of 8.5 μM of labeled Avidin, 1:2 mAv or 1:4 mAv in presence of protease inhibitors for 24 h in a 96-well plate at 37° C. on gentle shaking to prevent formation of stagnant layers. To minimize evaporation, the empty wells in the plate were filled with DI water and the plate was wrapped in parafilm. At the end of the experiment, the surfaces of each disk were quickly blotted with Kimwipes and the wet weight was measured. The equilibrium bath fluorescence was measured using a plate reader (Synergy H1, Biotek). The final concentration was calculated based on a linear calibration correlating fluorescence to concentration of labeled Avidin. The moles of solutes absorbed into the cartilage were calculated using the difference between the initial and equilibrium concentration of the bath. The concentration of solutes inside was calculated by normalizing the number of moles inside cartilage to the wet weight of the tissue. The uptake ratio (Ru) was defined as the ratio of the concentration of solutes inside the tissue (Ctissue) to that of the solute in the equilibrium bath (Cbath). […]
Data set [15] deals with chondrocytes. The following applies: incubation with chondrocytes in culture; cited from earlier work.

Consider “1:2 mAv: multi-arm Avidin containing two biotinylated 8-arm PEGs”, for which the “Zeta potential (ζ)” value in data set [1] worked out at 20.3 ± 0.3 mV. Moreover, the “Diameter (net size)” value in data set [2] was roughly 7.6 nm.
For the compound `C[C@@H]1C[C@H]2[C@@H]3CCC4=CC(=O)C=C[C@]4(C)[C@@]3(F)[C@@H](O)C[C@]2(C)[C@@]1(O)C(=O)CO` [Dex, dexamethasone], in data set [3], the “rescue of IL-1α reduced cell metabolism rates” value is “not rescued”. Also, the “suppression of IL-1α induced GAG loss” value in data set [4] (continuous dose 100 nM) was “effectively suppress IL-1α induced GAG loss”; in [4] (single dose 100 nM), “not effective”; in data set [4] (single dose 10 μM Dex), “significantly suppressed IL-1α induced GAG loss”. Moreover, the “lower nitrite levels compared to single dose of 100 nM Dex” value in data set [5] was found to be 3.5 ×. Besides, the “Safranin-O GAG staining” value in [6] (continuous dose 100 nM) is given as “mostly rescued”; in data set [6] (single dose 100 nM), “marginally affected”; in data set [6] (single dose 10 μM Dex) it was “protected GAG content to a greater extent than at 100 nM”. In addition, the “inflammation and cartilage protection” value in [7] was “significantly reduce inflammation and protect cartilage”. Further, in data set [7], the “toxicity of high multi-dose regimen” value is listed as “systemic toxicity in vital organs”. Besides, the “rescue of chondrocyte viability” value in data set [8] (continuous dose 100 nM) was “rescued effectively”; in data set [8] (single dose 100 nM), “not with a single dose”; in data set [8] (single dose 10 μM Dex, listed as free Dex) it was “not as effective”.
`CC1(C)O[C@@H]2C[C@H]3[C@@H]4CCC5=CC(=O)C=C[C@]5(C)[C@@]4(F)[C@@H](O)C[C@]3(C)[C@]2(C(=O)CO)O1` [TCA, triamcinolone acetonide]: in data set [9], the cartilage loss entry was “greater cartilage loss compared to saline”.
With “Av-Dex: Avidin covalently conjugated with 4 moles of Dexamethasone using its four biotin binding sites”, the “efficacy of single low dose IA injection” value in [10] is “suppressed injury induced joint inflammation, synovitis, incidence of osteophyte formation and restored trabecular properties at 3 weeks significantly greater than free Dex”.
In the case of “Avidin: cationic glycoprotein with four biotin binding sites”, the “intra-cartilage effective diffusivity DEFF” value in [11] is reported as 8.4 ± 2.0 × 10^−8 cm^2/s. The zeta potential result in data set [1] (in DI water, 'should be around') was “around 18.3±0.5 mV”. The “Zeta potential (ζ)” value in data set [1] is 18.3 ± 0.5 mV. Besides, the “Diameter (net size)” value in data set [2] is listed as roughly 7.0 nm. Moreover, in [12], the intra-cartilage uptake ratio is reported as 180 and the “presence in cartilage after IA administration” value is listed as “present through the full thickness of cartilage two weeks following its IA administration”. For the same compound, the “Avidin dose shown not to affect GAG loss, chondrocyte viability or biosynthesis rates” value in data set [13] is reported as “less than 100 μM”. For the same compound, the “drop of uptake following 50% GAG depletion compared to healthy condition” value in data set [14] is given as 13.2 ×.
Consider RRAAAARRAAAARRAAAARR [CPC+8], for which the uptake by chondrocytes entry in [15] is given as “not uptaken by the chondrocytes”.
